Experimental data taken from patent EP0992493A1, “Substituted benzoylpiperidine derivatives and their use as Neurokinin antagonists” (PFIZER INC., priority 1998, dated 2000).
pKi: −log10 of the molar value. Where a name gives a salt, the structure may show the parent alone. Read-outs that look alike come from different tables or passages of the source.

Experiments:
[1] = In vitro metabolic stability: disappearance half-life in human liver microsomes (HLM/37); format: in vitro ADME; conditions: human liver microsomes HLM/37 (0.5µM cytochrome P450), test compound 1µM, 37°C, NADPH, 60 minutes
Method: The in vitro metabolic stability of the compounds of the formula (I) and their salts can be tested by incubating samples for 1 hour at 37°C in the presence of a "moderate activity" (re. concentrations of cytochrome p450 enzymes present) human liver microsomal preparation (prepared from human liver homogenates). The samples were analysed by HPLC at regular intervals during this one hour period and the half-life (t½) determined (in minutes).
The metabolic stability of the compounds was determined in vitro by the method described on page 11 according to the following experimental protocol.
Transplant-quality human liver tissue was obtained from the International Institute for the Advancement of Medicine (Exton, PA). The donors ranged in age from 26 to 65 years old and included 3 males and 3 females. Hepatic microsomes were prepared from individual human livers by the process of differential centrifugation. Briefly, the liver tissue was homogenised in 50mM Tris HCI (pH 7.4) containing 250mM sucrose and then centrifuged at 9,000G for 20 minutes to remove the cell debris and nuclear fraction. The supernatant layer was removed and further centrifuged at 105,000G for 60 minutes to pellet the microsomal fraction. […] The cytochrome P450 content was determined using the method of Omura, T., Sato, R., J. Biol. Chem., 239, 2379-2385 (1964) and the protein concentration was determined using the method of Lowry et al., J. Biol. Chem., 193, 265-275 (1951), with bovine serum albumin as the protein standard.
The metabolic activities of the 6 major drug metabolising cytochrome P450 enzymes were determined for HLM/37 and compared to values obtained from a bank of individual human livers (n = 19). […]
Aliquots (100µl) were removed from the incubation at 0, 3, 5, 10, 15, 20, 30, 45 and 60 minutes after the addition of NADPH. […] After centrifugation 150µl aliquots were removed and 120µl of each of these analysed by HPLC on a Hypersil HS C18 5µ column (50x4.6mm) with a mobile phase of methanol:water (90:10, by volume) containing 2mM ammonium acetate. […]

[2] = molecular target: T1, human NK2 receptor (Homo sapiens, UniProt P21452); assay: Human NK2 receptor affinity: competition with [3H]-NKA for binding to CHO cell membranes
T1 sequence (P21452 1-398): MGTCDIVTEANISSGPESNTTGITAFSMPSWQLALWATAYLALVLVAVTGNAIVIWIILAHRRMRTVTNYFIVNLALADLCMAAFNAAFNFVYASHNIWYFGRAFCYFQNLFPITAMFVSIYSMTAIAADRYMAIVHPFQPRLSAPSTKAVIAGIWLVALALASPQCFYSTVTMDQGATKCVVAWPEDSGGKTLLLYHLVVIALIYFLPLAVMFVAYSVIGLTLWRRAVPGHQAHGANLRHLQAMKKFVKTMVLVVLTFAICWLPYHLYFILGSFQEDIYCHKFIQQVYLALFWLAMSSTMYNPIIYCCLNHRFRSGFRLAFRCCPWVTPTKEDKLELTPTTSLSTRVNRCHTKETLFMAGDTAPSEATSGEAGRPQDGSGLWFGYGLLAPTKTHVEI
Method: The affinity of the compounds of formula (I) and their salts for the human NK2 receptor can be tested in vitro by testing their ability to compete with [^3H]-NKA (neurokinin A) for binding to membranes prepared from Chinese hamster ovary cells expressing the cloned human NK2 receptor. In this method, washed Chinese hamster ovary cell membranes are prepared as described for the previous method where IM9 cells are used instead. The membranes are incubated (90 min, 25°C) with [^3H]-NKA and with a range of concentrations of the test compound. Non-specific binding was determined in the presence of 10µM NKA.
Human NK2 receptor affinity was tested in vitro by testing the ability to compete with [^3H]-NKA for binding to membranes prepared from Chinese hamster ovary cells expressing the cloned human NK2 receptor using the method set out on page 10. The pKi was then determined.
(§1) The "pKi" measurement is the negative logarithm of the molar affinity of the test compound for the receptor as determined in radioligand binding assays using standard protocols. A 1.0 log. unit difference in either the NK2 or NK3 receptor affinity figures corresponds to a 10-fold activity difference.

[3] = molecular target: T2, NK3 receptor (Cavia porcellus, UniProt P30098); assay: NK3 receptor affinity: inhibition of [3H]-senktide binding to guinea pig cortex membranes
T2 construct: membranes from guinea pig cortex; from tissue; host or cells: guinea pig cortex membranes
T2 sequence (P30098 1-440): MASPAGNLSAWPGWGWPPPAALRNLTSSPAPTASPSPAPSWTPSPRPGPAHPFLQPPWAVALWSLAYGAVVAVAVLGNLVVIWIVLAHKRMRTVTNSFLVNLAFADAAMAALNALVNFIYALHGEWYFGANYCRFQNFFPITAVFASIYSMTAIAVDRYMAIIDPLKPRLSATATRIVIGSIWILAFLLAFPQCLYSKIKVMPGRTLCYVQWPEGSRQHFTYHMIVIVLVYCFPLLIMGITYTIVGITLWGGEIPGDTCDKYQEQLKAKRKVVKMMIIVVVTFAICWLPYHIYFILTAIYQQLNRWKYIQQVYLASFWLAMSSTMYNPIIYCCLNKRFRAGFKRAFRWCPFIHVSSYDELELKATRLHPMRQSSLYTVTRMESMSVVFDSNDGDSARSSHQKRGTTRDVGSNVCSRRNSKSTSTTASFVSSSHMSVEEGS
Method: The compounds of the formula (I) and their salts can be tested for NK3 receptor affinity, in vitro, by testing their ability to inhibit [^3H]-senktide binding to membranes from guinea pig cortex using the method of Guard, et al, Br.J.Pharmacol., 99, 767-773 (1990).
NK3 receptor affinity was tested, in vitro, by the method described on pages 10 and 11 by testing the ability to inhibit [^3H]-senktide binding to membranes from guinea pig cortex using the method of Guard, et al, Br.J.Pharmacol., 99, 767-773 (1990). The pKi was then determined.
as §1

Row | SMILES | half-life at 1 µM [1] | Ki ([2]; [3H]-NKA, membranes from Chinese hamster ovary cells expressing the cloned human NK2 receptor, 90 min, 25°C, read-out: pKi (NK2) (converted)) | Ki ([3]; [3H]-senktide, membranes from guinea pig cortex, read-out: pKi (NK3) (converted)) | pKi [2] | pKi [3]
1 | O=C(c1ccccc1)N1CCC[C@](CCN2CCC(C3CCOCC3)CC2)(c2ccc(Cl)c(Cl)c2)C1 [Example 2] | 28 min | 6.31 nM | 63.1 nM |  | 
2 | CS(=O)(=O)N1CCC(C2CN(CC[C@]3(c4ccc(Cl)c(Cl)c4)CCCN(C(=O)c4ccccc4)C3)C2)CC1 [Example 6, 3(S)-1-Benzoyl-3-(3,4-dichlorophenyl)-3-{2-[3-(1-methylsulphonyl-4-piperidinyl)azetidin-1-yl]ethyl}piperidine hydrochloride] | 53 min |  |  | 8.30 | 7.40
3 | CS(=O)(=O)N1CC(C2CCN(CC[C@]3(c4ccc(Cl)c(Cl)c4)CCCN(C(=O)c4ccccc4)C3)CC2)C1 [Example 10, 3(S)-1-Benzoyl-3-(3,4-dichlorophenyl)-3-{2-[4-(1-methylsulfonylazetidin-3-yl)piperidin-1-yl]ethyl}piperidine] | 32 min |  |  | 8.30 | 7.70
